Assay results reported in the OPERA property sets (Mansouri et al. 2018).

Work on CCNc1nc(C)c(C(=O)CCN(CC)CC)s1 yielded a logP of 2.72.
CC(=O)n1c(=O)[nH]cc(F)c1=O gave a logP of -0.34.
In the case of CCCN(C)C(=O)c1cccc(Oc2ccccc2)c1, the logP was 3.44.
Work on O=C(O)CCCC(=O)c1ccccc1 yielded a logP of 1.49.
With CC(=O)OCC1=C(C(=O)O)N2C(=O)[C@@H](NC(=O)CSc3ccncc3)[C@H]2SC1 the logP was -1.15.
For COc1ncnc2c1ncn2C1OC(CO)C(OC(=O)C(C)(C)C)C1OC(=O)C(C)(C)C (stereo not drawn), the logP was 3.61.
Compound CNc1nc(C)c(C(=O)CCN2CCOCC2)s1 has a logP of 0.95.
With CCCNC(=O)CCn1ccc(=O)c(O)c1C the logP was -0.4.
Compound CC1c2nc3ccccc3c(=O)n2CN1CCO (stereo not drawn) has a logP of 0.46.
Compound CCc1[nH]ccc(=O)c1O has a logP of 0.05.
COc1ccc(-c2nc3ncc(N)cc3[nH]2)c(OC)c1 gave a logP of 1.62.
CCON1C(=O)CC2(CCCC2)C1=O gave a logP of 1.26.
Cc1cccc2nc3n(c(=O)c12)CCC3 gave a logP of 1.59.
For C=C1C(=O)OC2CC3=CC(CC4(C)OC4C(O)C12)OC3=O (stereo not drawn), the logP was -0.64.
For CNC(=S)NCCCCc1nc[nH]c1C, the logP was 0.85.
For Cc1c(F)c(F)c(C(=O)O)c(F)c1F, the logP was 3.15.
Nc1cc(Cl)c(Cl)c(Cl)c1Cl gave a logP of 4.27.
With COc1ccc2c(=O)c(C)c(-c3ccccc3)oc2c1CN(C)C the logP was 3.65.
Cc1nn(-c2ccccc2)c(Nc2ccccc2)c1[N+](=O)[O-] showed a logP of 2.98.
Nc1nc(NCC(O)CO)c(Cl)nc1[N+](=O)[O-] (stereo not drawn) gave a logP of -0.22.
In the case of Cc1cc(O)c(N)nn1, the logP was -0.85.
In the case of NC(=O)Nc1ccc(C(=O)O)cc1, the logP was 0.73.
In the case of N#Cc1ccccc1OCC(O)CNCCNC(=O)Cc1ccc(O)cc1 (stereo not drawn), the logP was 0.92.
O=C1COC(=O)N1c1ccccc1 showed a logP of 0.93.
OCC1OC(O)C(O)C(O)C1O (stereo not drawn) showed a logP of -3.24.
Compound COc1ccc(OCC(OC(=S)n2ccnc2)C(C)(C)C)cc1 (stereo not drawn) has a logP of 4.31.
Work on CCCCCCCOC(=O)c1cc(=O)[nH]c(=O)[nH]1 yielded a logP of 2.15.
For CCCOc1ccc(OCC(OC(=S)n2ccnc2)C(C)(C)C)cc1 (stereo not drawn), the logP was 5.03.
In the case of NCC(O)c1ccc(O)cc1 (stereo not drawn), the logP was -0.9.
Work on Cc1ccccc1C(=O)CCN1CCCCC1 yielded a logP of 3.54.
Compound Cc1c(O)ccc(O)c1C has a logP of 1.36.
With O=c1[nH]c2cc(Cl)ccc2n1C1CCN(CCCC(c2ccc(F)cc2)c2ccc(F)cc2)CC1 the logP was 7.1.
Cc1cc(O)c(N(C)C)nn1 showed a logP of 0.24.
NC1C2CCC1c1cccc(C(F)(F)F)c1C2 (stereo not drawn) gave a logP of 3.65.
CC(=O)NC(CO)C(N)=O (stereo not drawn) gave a logP of -1.87.
In the case of CC(C)c1ccc(OCC(OC(=S)n2ccnc2)C(C)(C)C)cc1 (stereo not drawn), the logP was 5.21.
In the case of CC(=O)Nc1nc(=O)cc(-c2ccc([N+](=O)[O-])o2)s1, the logP was 1.01.
With NS(=O)(=O)c1cc2c(cc1[N+](=O)[O-])N=CNS2(=O)=O the logP was 0.08.
Compound CCC1(O)CC2CN(CCc3c([nH]c4ccccc34)C(C(=O)OC)(c3cc4c(cc3OC)N(C)C3C(O)(C(=O)OC)C(OC(=O)CN(C)C)C5(CC)C=CCN6CCC43C65)C2)C1 (stereo not drawn) has a logP of 4.02.
For Clc1cc(Cl)cc(-c2cc(Cl)cc(Cl)c2)c1, the logP was 6.6.
In the case of Nc1nc(=O)c2[nH]c(N)c(Cc3cccs3)c2[nH]1, the logP was 1.01.
For NS(=O)(=O)c1cc2c(cc1Cl)NC(c1ccccc1)=NS2(=O)=O, the logP was 1.4.
Work on COC(=O)NC1=NCC(c2ccc(Cl)cc2)N1C (stereo not drawn) yielded a logP of 2.17.
With COC(=O)c1c(C)[nH]c(-c2cccc(Cl)n2)c1C(=O)OC the logP was 2.65.
For NC(=O)COc1ccc(OCCNCC(O)COc2ccccc2)cc1 (stereo not drawn), the logP was 1.1.
With CCOP(=O)(O)Cc1ccc(S(C)(=O)=O)cc1 the logP was -0.4.
Compound Cc1ncc(OP(=O)(O)O)c(CO)c1O has a logP of -0.64.
CC(=O)n1cc(CC(NC(=O)CC2NC(=O)C3C4CCC(CC4)N3C2=O)C(=O)NC(Cc2ccccc2)C(=O)N(C)Cc2ccccc2)c2ccccc21 (stereo not drawn) gave a logP of 3.69.
For CCOC(=O)CN(C(=O)CCl)c1ccccc1OC(C)C, the logP was 2.75.
Compound NC1C2CCC1c1cc(C(F)(F)F)ccc1C2 (stereo not drawn) has a logP of 3.59.
With COC(=O)Nc1nc2cc(C(=O)c3ccccc3)ccc2n1C(=O)OC the logP was 2.47.
O=[N+]([O-])c1cnc(N2CCNC2=S)s1 showed a logP of 1.7.
CC(C)CC1NC(=O)NC1=O (stereo not drawn) showed a logP of 0.35.
In the case of CCOC(=O)c1cnc2n(c1=O)CC(C)CC2 (stereo not drawn), the logP was 0.71.
With CC(=O)c1ccc2cc(C(C)C(=O)OCC(N)=O)ccc2c1 (stereo not drawn) the logP was 2.06.
For CNC(=O)NCCCn1nc(-c2ccccc2)ccc1=O, the logP was 1.16.
Cc1ccc(Cl)c(NS(=O)(=O)c2nc(C)n(-c3ccccc3)n2)c1Cl showed a logP of 4.4.
Work on CC1(C)S[C@@H]2[C@H](NC(=O)[C@H](N)c3ccccc3)C(=O)N2[C@H]1C(=O)O yielded a logP of 1.35.
CCN(CC)C(=O)CCn1ccc(=O)c(O)c1C showed a logP of -0.36.
Cc1c(O)c(=O)ccn1CCC(=O)N(C)C showed a logP of -1.16.
N#Cc1cccnc1 gave a logP of 0.36.
Compound CCN1Cn2c(nc3ccccc3c2=O)C1C (stereo not drawn) has a logP of 1.02.
Compound CCC(C(=O)OCc1ccccc1)C(COC(=O)Cc1ccccc1)Cc1cncn1C (stereo not drawn) has a logP of 4.
With COC(=O)NC1=NCC(c2cccc(F)c2)N1 (stereo not drawn) the logP was 1.41.
C=C[C@H]1CN2CCC1C[C@@H]2[C@@H](O)c1ccnc2ccccc12 (stereo partly drawn) showed a logP of 2.68.
Work on CCOC(=O)OCn1c(=O)[nH]cc(F)c1=O yielded a logP of 0.15.
For COc1cc(N)ccc1C(=O)O, the logP was 0.45.
Compound CCCn1ccc(=O)c(O)c1CC has a logP of 0.7.
CCC(=O)OCOC(=O)c1cn(CC)c2nc(C)ccc2c1=O gave a logP of 1.7.
For CCN(CC)CCCN1c2ccccc2Sc2ccc(Cl)cc21, the logP was 6.46.
Compound CC12CCC(OS(=O)(=O)O)CC1CCC1C2CCC2(C)C(C3=CC(=O)OC3)CCC12O (stereo not drawn) has a logP of -0.14.
Compound Nc1cc(Cl)c(Cl)cc1Cl has a logP of 3.45.
Compound O=C(O)Cc1ccc(C(=O)O)cc1 has a logP of 1.24.
For Nc1ccc(C(=O)O)c(N)c1, the logP was -0.31.
CCOc1ccc(OCC(OC(=S)n2ccnc2)C(C)(C)C)cc1 (stereo not drawn) showed a logP of 4.58.
For Cc1ccc(C=O)o1, the logP was 0.67.
Work on Cc1ccc(C(=O)CCN2CCCCC2)c(C)c1 yielded a logP of 3.71.
With CC(C)(C)C(COc1ccc(F)cc1)OC(=S)n1ccnc1 (stereo not drawn) the logP was 4.37.
Compound CNC(=O)N1C(=O)CN=C(c2ccccc2)c2cc([N+](=O)[O-])ccc21 has a logP of 1.76.
In the case of CCCc1c2oc(C(=O)O)cc(=O)c2cc2c(=O)cc(C(=O)O)n(CC)c12, the logP was 2.22.
CN(Cc1cccc(Br)c1)N=O gave a logP of 1.65.
For Cc1nnc(C(C)(C)C)c(=O)n1N, the logP was 1.03.
COC(=O)c1ccccc1S(=O)(=O)NC(=O)Nc1nc(C)nc(OC)n1 gave a logP of 2.2.
CCCC(=NOCC)C1C(=O)CC2(CCSCC2)OC1=O (stereo not drawn) gave a logP of 2.9.
Compound Oc1c(Cl)cc(Cl)c(Cl)c1O has a logP of 3.6.
Compound CC(C)(C)C(COc1ccc(I)cc1)OC(=O)n1ccnc1 (stereo not drawn) has a logP of 4.3.
For COC(=O)c1ccccc1O, the logP was 2.55.
Compound CCC1(CC)C(=O)NCC(C)C1=O (stereo not drawn) has a logP of 0.78.
For CNc1nnc(-c2cc(Cl)cc(Cl)c2)c(=O)n1N, the logP was 1.91.
N=C(NCC#CCC(NC(=O)C(Cc1ccc2ccccc2c1)Cc1cccc2ccccc12)C(=O)NC(CC1CCCCC1)C(O)CC(=O)NCCN1CCOCC1)N[N+](=O)[O-] (stereo not drawn) showed a logP of 4.73.
In the case of CCc1c(O)c(=O)ccn1CCOC, the logP was 0.04.
CCC(C(=O)OCc1ccc(Cl)cc1)C(CO)Cc1cncn1C (stereo not drawn) gave a logP of 2.69.
Compound CCCC(=O)N1CCCC1=O has a logP of 1.18.
Work on O=C(O)c1cc(I)ccc1O yielded a logP of 3.34.
NS(=O)(=O)c1cc2c(cc1C(F)(F)F)NC=NS2(=O)=O showed a logP of 0.32.
Work on CSc1nnc(C2CCOCC2)c(=O)n1N yielded a logP of 1.07.
With CN1C(=O)NC(c2ccccc2)(c2ccccc2)C1=O the logP was 2.28.
With CCOC(=O)c1cc(=O)[nH]c(=O)[nH]1 the logP was 0.68.
